Reference: patent publication US12162840B2, “Herbicidal compositions” (SYNGENTA PARTICIPATIONS AG, priority 2018, dated 2024)

Test system: cool season plant species
Assay: B2 Post-emergence efficacy Test 2, cool season plant species
Type: in vivo
Conditions: 15 days after application, 0=no damage, 100=total kill
Summary of the method: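 Plants at 12 days post-sowing were sprayed with active ingredient formulated in IF50 plus 0.2% v/v Genapol XO80, then grown in a glasshouse (24/18 °C or 20/16 °C day/night, 16 h light, 65% humidity). Damage scored 15 days after application on 0–100 scale (100 = total kill).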

Cc1nn(C)c(=O)c(-c2c(F)ccc(Cl)c2CCc2ccc(Cl)cc2)c1OC(=O)C(C)C [Compound 1.089]
Herbicidal activity (0-100 scale) ALOMY (15 g/Ha): 20 | Herbicidal activity (0-100 scale) ALOMY (30 g/Ha): 50 | Herbicidal activity (0-100 scale) ALOMY (60 g/Ha): 50 | Herbicidal activity (0-100 scale) ALOMY (125 g/Ha): 80 | Herbicidal activity (0-100 scale) ALOMY (250 g/Ha): 80 | Herbicidal activity (0-100 scale) ALOMY (500 g/Ha): 90 | Herbicidal activity (0-100 scale) AVEFA (15 g/Ha): 30 | Herbicidal activity (0-100 scale) AVEFA (30 g/Ha): 70 | Herbicidal activity (0-100 scale) AVEFA (60 g/Ha): 70 | Herbicidal activity (0-100 scale) AVEFA (125 g/Ha): 80 | Herbicidal activity (0-100 scale) AVEFA (250 g/Ha): 90 | Herbicidal activity (0-100 scale) AVEFA (500 g/Ha): 90 | Herbicidal activity (0-100 scale) BEAVA (15 g/Ha): 90 | Herbicidal activity (0-100 scale) BEAVA (30 g/Ha): 80 | Herbicidal activity (0-100 scale) BEAVA (60 g/Ha): 80 | Herbicidal activity (0-100 scale) BEAVA (125 g/Ha): 80 | Herbicidal activity (0-100 scale) BEAVA (250 g/Ha): 90 | Herbicidal activity (0-100 scale) BEAVA (500 g/Ha): 90 | Herbicidal activity (0-100 scale) BROTE (15 g/Ha): 0 | Herbicidal activity (0-100 scale) BROTE (30 g/Ha): 0 | Herbicidal activity (0-100 scale) BROTE (60 g/Ha): 10 | Herbicidal activity (0-100 scale) BROTE (125 g/Ha): 30 | Herbicidal activity (0-100 scale) BROTE (250 g/Ha): 60 | Herbicidal activity (0-100 scale) BROTE (500 g/Ha): 70 | Herbicidal activity (0-100 scale) BRSNN (15 g/Ha): 80 | Herbicidal activity (0-100 scale) BRSNN (30 g/Ha): 80 | Herbicidal activity (0-100 scale) BRSNN (60 g/Ha): 90 | Herbicidal activity (0-100 scale) BRSNN (125 g/Ha): 90 | Herbicidal activity (0-100 scale) BRSNN (250 g/Ha): 90 | Herbicidal activity (0-100 scale) BRSNN (500 g/Ha): 90 | Herbicidal activity (0-100 scale) CHEAL (15 g/Ha): 80 | Herbicidal activity (0-100 scale) CHEAL (30 g/Ha): 90 | Herbicidal activity (0-100 scale) CHEAL (60 g/Ha): 90 | Herbicidal activity (0-100 scale) CHEAL (125 g/Ha): 100 | Herbicidal activity (0-100 scale) CHEAL (250 g/Ha): 100 | Herbicidal activity (0-100 scale) CHEAL (500 g/Ha): 100 | Herbicidal activity (0-100 scale) GALAP (15 g/Ha): 10 | Herbicidal activity (0-100 scale) GALAP (30 g/Ha): 20 | Herbicidal activity (0-100 scale) GALAP (125 g/Ha): 30 | Herbicidal activity (0-100 scale) GALAP (250 g/Ha): 30 | Herbicidal activity (0-100 scale) GALAP (500 g/Ha): 90 | Herbicidal activity (0-100 scale) HORVW (15 g/Ha): 10 | Herbicidal activity (0-100 scale) HORVW (30 g/Ha): 10 | Herbicidal activity (0-100 scale) HORVW (60 g/Ha): 20 | Herbicidal activity (0-100 scale) HORVW (125 g/Ha): 20 | Herbicidal activity (0-100 scale) HORVW (250 g/Ha): 30 | Herbicidal activity (0-100 scale) HORVW (500 g/Ha): 60 | Herbicidal activity (0-100 scale) KCHSC (15 g/Ha): 10 | Herbicidal activity (0-100 scale) KCHSC (30 g/Ha): 20 | Herbicidal activity (0-100 scale) KCHSC (60 g/Ha): 50 | Herbicidal activity (0-100 scale) KCHSC (125 g/Ha): 60 | Herbicidal activity (0-100 scale) KCHSC (250 g/Ha): 60 | Herbicidal activity (0-100 scale) KCHSC (500 g/Ha): 60 | Herbicidal activity (0-100 scale) LOLPE (15 g/Ha): 40 | Herbicidal activity (0-100 scale) LOLPE (30 g/Ha): 70 | Herbicidal activity (0-100 scale) LOLPE (60 g/Ha): 80 | Herbicidal activity (0-100 scale) LOLPE (125 g/Ha): 90 | Herbicidal activity (0-100 scale) LOLPE (250 g/Ha): 90 | Herbicidal activity (0-100 scale) LOLPE (500 g/Ha): 90 | Herbicidal activity (0-100 scale) POAAN (15 g/Ha): 20 | Herbicidal activity (0-100 scale) POAAN (30 g/Ha): 40 | Herbicidal activity (0-100 scale) POAAN (60 g/Ha): 70 | Herbicidal activity (0-100 scale) POAAN (125 g/Ha): 90 | Herbicidal activity (0-100 scale) POAAN (250 g/Ha): 80 | Herbicidal activity (0-100 scale) POAAN (500 g/Ha): 70 | Herbicidal activity (0-100 scale) SINAR (15 g/Ha): 70 | Herbicidal activity (0-100 scale) SINAR (30 g/Ha): 80 | Herbicidal activity (0-100 scale) SINAR (60 g/Ha): 90 | Herbicidal activity (0-100 scale) SINAR (125 g/Ha): 90 | Herbicidal activity (0-100 scale) SINAR (250 g/Ha): 90 | Herbicidal activity (0-100 scale) SINAR (500 g/Ha): 90 | Herbicidal activity (0-100 scale) STEME (15 g/Ha): 90 | Herbicidal activity (0-100 scale) STEME (30 g/Ha): 90 | Herbicidal activity (0-100 scale) STEME (60 g/Ha): 90 | Herbicidal activity (0-100 scale) STEME (125 g/Ha): 90 | Herbicidal activity (0-100 scale) STEME (250 g/Ha): 90 | Herbicidal activity (0-100 scale) STEME (500 g/Ha): 90 | Herbicidal activity (0-100 scale) TRZAW (15 g/Ha): 0 | Herbicidal activity (0-100 scale) TRZAW (30 g/Ha): 0 | Herbicidal activity (0-100 scale) TRZAW (60 g/Ha): 20 | Herbicidal activity (0-100 scale) TRZAW (125 g/Ha): 30 | Herbicidal activity (0-100 scale) TRZAW (250 g/Ha): 60 | Herbicidal activity (0-100 scale) TRZAW (500 g/Ha): 70 | Herbicidal activity (0-100 scale) VERPE (15 g/Ha): 70 | Herbicidal activity (0-100 scale) VERPE (30 g/Ha): 80 | Herbicidal activity (0-100 scale) VERPE (60 g/Ha): 90 | Herbicidal activity (0-100 scale) VERPE (125 g/Ha): 90 | Herbicidal activity (0-100 scale) VERPE (250 g/Ha): 100 | Herbicidal activity (0-100 scale) VERPE (500 g/Ha): 100
